Experimental data from patent US6653442B1, “Protegrins” (priority 1993, dated 2003).
Square brackets hold non-standard residues; d marks the D form. Ends that are not written are not given here.

Experiments:
C. albicans, strain 820 = type: cell-based, Candida albicans
Experimental: Similarly, using C. albicans as a target organism, underlayers were prepared with 10 mM sodium phosphate with and without 10% normal human serum.

[1] = system: lipid polysaccharide (LPS) of E. coli strain 0.55B5; assay: Limulus amebocyte lysate (LAL) test for endotoxin binding; type: biochemical; settings: LPS 0.05 endotoxin unit/ml
[2] = system: Pseudomonas aeruginosa (Psa); assay: Minimal inhibitory concentration, Psa; type: cell-based
Experimental: (§1) The minimal inhibitory concentrations (MICs) of a variety of protegrins were determined against the following organisms: methicillin resistant Staphylococcus aureus (MRSA), Pseudomonas aeruginosa (Psa), vancomycin resistant Enterococcus fecium (VREF), Candida albicans (Candid) and Escherichia coli (E. Co), and are shown in Table 9.

[3] = system: Candida albicans (Candid); assay: Minimal inhibitory concentration, Candida; type: cell-based
Experimental: as §1

Escherichia coli (E. Co) = assay: Minimal inhibitory concentration, E. coli; type: cell-based
Experimental: as §1

[4] = system: methicillin resistant Staphylococcus aureus (MRSA); assay: Minimal inhibitory concentration, MRSA; type: cell-based
Experimental: as §1

[5] = system: Listeria monocytogenes, strain EGD; assay: Radial diffusion assay in agarose gels, L. monocytogenes; type: cell-based
Experimental: Aliquots (66 μl) of each fraction were dried by vacuum centrifugation and resuspended in 6.6 μl of 0.01% acetic acid. Five μl samples of this concentrate were tested for antimicrobial activity against E. coliML-3, L. monocytogenes, strain EGD and C. albicans, strain 820, using radiodiffusion and gel overlay techniques as described by Lehrer, R. I. et al. J Immunol Meth (1991) 137:167-173. […] The units of activity in the radial diffusion assay were measured as described; 10 units correspond to a 1 mm diameter clear zone around the sample well. Activity was found in a large number of fractions.
The radial diffusion assay in agarose gels described in Example 1 was also used to test the activity of the purified protegrins. FIGS. 4a, 4b and 4c show the results against three test organisms in units described as above.
The antimicrobial activity of the linearalized forms was also compared with that of the native protegrins. Both linearalized and cyclic forms of the protegrins tested continue to show antimicrobial activity, although the effectiveness of these peptides as antimicrobials depends on the nature of the target organism and on the test conditions. The antimicrobial activity of native PG-1 and its linearalized form (cam-PG-1) and PG-3 and its linearalized form (cam-PG-3) were tested according to the procedure set forth in Example 1 as described by Lehrer, R. I. et al. J Immunol Meth (1991) 137:167-173.
Using standard solid phase techniques, a protegrin having the amino acid sequence of PG-1, but wherein every amino acid is in the D form was prepared. This form of protegrin was tested against E. coli, L. monocytogenes, C. albicans and other microbes in the absence and presence of protease and otherwise as described for the radiodiffusion assay in agarose gels set forth in Example 1.
The kite and bullet PG-1 compounds prepared in Example 12 were tested for antimicrobial activity using the radial diffusion assay described in Example 1 as published by Lehrer, R. I. et al., J Immunol Meth (1991) 137:167-173, except that the underlay agars contained […] sodium phosphate buffer with a final pH of 7.4. As described in Example 1, 0.3 mg/ml tripticase soy broth powder and 1% agarose were used as well in the underlay agar. In some cases 100 mM NaCl or RPMI plus 2.5% normal human serum (NHS) was added to the agar.

E. coli ML-35P = assay: Radial diffusion assay in agarose gels, E. coli; type: cell-based
Experimental: Aliquots (66 μl) of each fraction were dried by vacuum centrifugation and resuspended in 6.6 μl of 0.01% acetic acid. […] The units of activity in the radial diffusion assay were measured as described; 10 units correspond to a 1 mm diameter clear zone around the sample well.

[6] = system: N. gonorrhoeae strains FA 19 and F 62; settings: 45 minutes at 37° C.
Experimental: Nonpiliated transparent variants of strains FA 19 and F 62 were propagated on GCB agar plates containing glucose and iron supplements overnight at 37° C. under 3.8% V/V CO2. These strains were chosen for their adaptability to the assay.
The overnight growth is removed from the agar plate and suspended in GCB broth containing supplements and sodium bicarbonate and grown with shaking at 37° C. to mid log phase. The culture is diluted 1:100 in GCB broth to give about 10^6 CFU/ml and serial dilutions were plated onto GCB agar.
Ten μl of each dilution is added to a sterile polystyrene tube containing 90 μl of diluted bacteria and the tubes are shaken at 37° C. for 45 minutes. The contents are serially diluted 1:10 and plated on to GCB agar plates which are incubated in a CO2 incubator. CFU are counted after 24 hours and the log bactericidal activity calculated.

HIVJR-CSF and HIVJR-FL = assay: HIV infection of human peripheral blood mononuclear cells, p24 antigen
Experimental: Briefly, the mononuclear cell fraction is recovered from normal donor leukopacs from the American Red Cross using a Ficoll-hypaque density gradient. The mononuclear cells are resuspended at 1×10^6 cells per ml in RPMI 1640 medium with 20% fetal bovine serum, 1% penn/strep with fungizone and 0.5% PHA and incubated 24 hours at 37° C. in 5% CO2. The cells are centrifuged, washed and then expanded for 24 hours in growth medium.
Non-laboratory adapted, cloned HIVJR-CSF and HIVJR-FL were electroporated into the human peripheral blood mononuclear cells prepared as described above. Titers were determined and in general, multiplicities of infection (MOI) of about 4,000 infectious units per cell are used (which corresponds to 25-40 picograms per ml HIV p24 antigen in the supernatant).
In the assay, the HIV stocks prepared as above were diluted to the correct MOI and the PBM are added to 24 well plates at a concentration of 2×10^6 per ml. One μl total volume is added to each well. The peptide to be tested is added in growth medium to achieve the final desired concentration. Then the appropriate number of MOI are added. To assay viral growth, 200 μl of supernatant is removed on days 3 and 7 and the concentration of p24 antigen is determined using a commercial assay (Coulter Immunology, Hialeah, Fla.). Controls include duplicate wells containing cells alone, cells plus peptide at 5 μg/ml cells with virus but not peptide and cells with virus in the presence of AZT at 10^−5 M-10^−8 M.

[7] = system: Trichomonas vaginallis strain C1 (ATCC 30001); strains MR and TV; assay: Trichomonas vaginallis exposure assay; settings: strains MR and TV; 100 and 50 μg/ml
[8] = Radial diffusion assay in 25 mM borate buffer (Table 4); type: cell-based; settings: buffer (25 mM borate buffer, pH 7.4)
Experimental: Contact lens solutions are typically formulated with borate buffered physiological saline and may or may not contain EDTA in addition. Protegrins in the form of the synthetic PG-3 amide and synthetic PG acid were tested generally in the assay described in Example 1 wherein all underlay gels contain 25 mM borate buffer, pH […] tryptocase soy broth ([…] TSB powder) and […]. Additions included either 100 mM NaCl, 1 mM EDTA or a combination thereof. Other test compounds used as controls were the defensin NP-1 and lysozyme. Dose response curves were determined.

[9] = radial diffusion, underlay agar pH 6.5

| Substance | minimal inhibitory concentration (MIC) Psa [2] | minimal inhibitory concentration (MIC) Candid [3] | minimal inhibitory concentration (MIC) E. Co (Escherichia coli (E. Co)) | minimal inhibitory concentration (MIC) MRSA [4] | also measured |
| --- | --- | --- | --- | --- | --- |
| HNP-2: native human defensin used as control (CYCRIPACIAGERRYGTCIYQGRLWAFCC; ends and bridges not checked; cysteine pairing not given here; UniProt P59665 66-94, looked up) [reference compound] | – | – | – | – | activity against Candida albicans in fetal calf serum (FIG. 5c) (C. albicans, strain 820; 90% fetal calf serum): lose their ability to inactivate C. albicans; gel formation in LAL test ([1]; 2.5 μg peptide in 0.2 ml): trace; gel formation in LAL test ([1]; 5 μg peptide in 0.2 ml): trace; gel formation in LAL test ([1]; 10 μg peptide in 0.2 ml): trace |
| HNP-3: native human defensin [reference compound] | – | – | – | – | gel formation in LAL test ([1]; 10 μg peptide in 0.2 ml): no gel |
| HNP-4: native human defensin (VCSCRLVFCRRTELRVGNCLIGGVSFTYCCTRV; ends and bridges not checked; cysteine pairing not given here; UniProt P12838 64-96, looked up) [reference compound] | – | – | – | – | gel formation in LAL test ([1]; 2.5 μg peptide in 0.2 ml): trace; gel formation in LAL test ([1]; 5 μg peptide in 0.2 ml): trace; gel formation in LAL test ([1]; 10 μg peptide in 0.2 ml): no gel |
| R-G-G-G-L-C-Y-A-R-G-F-I-A-V-C-F-G-R (RGGGLCYARGFIAVCFGR-NH2; not fully specified; printed as R-G-G-G-L-C-Y-A-R-G-F-I-A-V-C-F-G-R; cysteine pairing not given here) [IB-216] | 14 | 65.8 | 3.27 | 19 | – |
| R-G-G-G-L-C-Y-A-R-G-W-I-A-F-C-V-G-R (RGGGLCYARGWIAFCVGR-NH2; cysteine pairing not given here) [IB-214] | 0.59 | 32.6 | 0.81 | 2.1 | – |
| R-G-G-G-L-C-Y-A-R-K-G-F-A-V-C-V-G-R (RGGGLCYARKGFAVCVGR-NH2; cysteine pairing not given here) [IB-227] | 0.01 | – | 2.65 | >128 | – |
| R-G-G-G-L-C-Y-C-F-P-K-F-C-V-C-V-G-R (RGGGLCYCFPKFCVCVGR-NH2; cysteine pairing not given here) [IB-218] | 1.2 | 15.96 | – | 3.48 | – |
| R-G-G-G-L-C-Y-C-R-P-R-F-C-V-C-V-G-R-OH (RGGGLCYCRPRFCVCVGR-OH; cysteine pairing not given here) [IB-324] | – | 17.7 | 3.51 | – | – |
| R-G-G-G-L-C-Y-C-R-R-G-F-C-V-C-F-G-R (RGGGLCYCRRGFCVCFGR-NH2; cysteine pairing not given here) [IB-223] | 0.14 | 1.62 | – | 1.93 | – |
| R-G-G-G-L-C-Y-C-R-R-P-F-C-V-C-V-G-R (RGGGLCYCRRPFCVCVGR-NH2; cysteine pairing not given here) [IB-224] | 0.06 | 7.69 | 0.15 | 3.1 | – |
| R-G-G-G-L-C-Y-C-R-R-R-F-C-V-C-V-G-R-OH (RGGGLCYCRRRFCVCVGR-OH; cysteine pairing not given here) [IB-249] | – | 3.29 | 0.4 | – | – |
| R-G-G-G-L-C-Y-T-R-P-R-F-T-V-C-V-G-R (RGGGLCYTRPRFTVCVGR-NH2; cysteine pairing not given here) [IB-226] | 0.07 | – | 1.53 | 8.7 | – |
| R-G-G-R-L-C-Y-A-R-R-R-F-A-V-C-V-G-R (RGGRLCYARRRFAVCVGR) [IB-289] | 0.05 | 1.6 | 0.4 | – | – |
| R-G-G-R-L-C-Y-A-R-R-R-F-A-V-C-V-G-R-OH (RGGRLCYARRRFAVCVGR-OH; cysteine pairing not given here) [IB-288] | 0.05 | 1.6 | 0.4 | – | – |
| R-G-G-R-L-C-Y-C-R-P-R-F-C-V-C-V-G-R (RGGRLCYCRPRFCVCVGR-NH2; cysteine pairing not given here) [PG-5] | – | – | – | – | antimicrobial activity against C. albicans compared to synthetic PG-1 (FIGS. 11a-11c) (C. albicans, strain 820): comparable antimicrobial activity to PG-1; antimicrobial activity against L. monocytogenes compared to synthetic PG-1 (FIGS. 11a-11c) [5]: comparable antimicrobial activity to PG-1; antimicrobial activity against E. coli compared to synthetic PG-1 (FIGS. 11a-11c) (E. coli ML-35P): comparable antimicrobial activity to PG-1 |
| R-G-G-R-L-C-Y-C-R-R-R-F-C-I-C-V (RGGRLCYCRRRFCICV) [PG-2, protegrin isolated from porcine leukocytes] | – | – | – | – | antifungal activity against Candida albicans (FIG. 4c) (C. albicans, strain 820; [9]): effective against the three organisms tested but was not as active as the other two peptides; reduction in CFU per ml [6]: 2.6 fold; anti-HIV activity level relative to PG-1 (HIVJR-CSF and HIVJR-FL): approximately 5 fold less; antibacterial activity against Listeria monocytogenes (FIG. 4b) [5, 9]: effective against the three organisms tested but was not as active as the other two peptides; antibacterial activity against E. coli (FIG. 4a) (E. coli ML-35P; [9]): effective against the three organisms tested but was not as active as the other two peptides; gel formation in LAL test ([1]; 1.0 μg peptide in 0.2 ml): no gel; gel formation in LAL test ([1]; 2.5 μg peptide in 0.2 ml): no gel; gel formation in LAL test ([1]; 5 μg peptide in 0.2 ml): no gel; gel formation in LAL test ([1]; 10 μg peptide in 0.2 ml): no gel |
| R-G-G-R-L-C-Y-C-R-R-R-F-C-V-C-V-G-R (all †) ([dR]GG[dR][dL][dC][dY][dC][dR][dR][dR][dF][dC][dV][dC][dV]G[dR]-NH2; cysteine pairing not given here) [enantioPG-1] | – | – | – | – | susceptibility of metronidazole-resistant clinical isolates [7]: susceptible; inhibition of growth of E. coli (FIG. 12a) (E. coli ML-35P; absence of protease): equally effective; antibacterial effect in presence of protease (FIG. 12b) (E. coli ML-35P; trypsin or chymotrypsin, organism of FIG. 12b not stated): neither trypsin nor chymotrypsin inhibits the antibacterial effect |
| R-G-G-R-L-C-Y-C-R-R-R-F-C-V-C-V-G-R-OH (RGGRLCYCRRRFCVCVGR-OH; cysteine pairing not given here) [IB-247] | 0.11 | 1.2 | 0.6 | 1.5 | – |
| R-G-G-R-V-C-Y-C-R-G-R-F-C-V-C-V (RGGRVCYCRGRFCVCV) [IB-400] | 2 | – | – | 8 | – |
| R-G-G-R-V-C-Y-C-R-G-R-F-C-V-C-V-G-R (RGGRVCYCRGRFCVCVGR) [IB-398] | 1 | – | – | 8 | – |
| R-G-G-R-V-C-Y-C-R-G-R-F-C-V-C-V-OH (RGGRVCYCRGRFCVCV-OH; cysteine pairing not given here) [IB-401] | 1 | – | – | 64 | – |
| lysozyme [reference compound] | – | – | – | – | ESTIMATED MINIMAL FUNGICIDAL CONCENTRATIONS [8]: 75.0 µg/mL |
